Reference: ChEMBL document CHEMBL5505993, “Identification of a ferritinophagy inducer via sinomenine modification for the treatment of colorectal cancer” (Eur J Med Chem, 2024)
The source made the active and inactive calls. No cut-off for these calls is given here.

Assays:
HCT-116 [1] = assay: Antitumor activity against human HCT-116 cells xenografted in BALB/c mouse assessed as reduction in tumor volume at 30 mg/kg,ip administrated daily for 14 days; format: functional, organism-based; conditions: time 14.0 day
HCT-116 [2] = assay: Induction of ferroptosis in human HCT-116 cells assessed as increase in intracellular ferrous ion level incubated for 12 hrs by ferroOrange probe based confocal fluorescence microscopic analysis; format: functional, cell-based
HCT-116 [3] = assay: Induction of ferroptosis in human HCT-116 cells assessed as increase in intracellular ferrous ion level at 20 uM incubated for 12 hrs in presence of ferroptosis inhibitor, deferoxamine mesylate by ferroOrange probe based flow cytometric analysis; format: functional, cell-based
HCT-116 [4] = assay: Antitumor activity against human HCT-116 cells xenografted in BALB/c mouse assessed as reduction in tumor growth at 60 mg/kg,ip administrated daily for 14 days; format: functional, organism-based; conditions: time 14.0 day
[5] = Toxicity in BALB/c mouse xenografted with human HCT-116 cells assessed as histopathological changes in heart at 30 mg/kg,ip administrated daily for 14 days by hematoxylin and eosin staining based microscopic analysis; format: organism-based; conditions: in vivo, 336 h, time 14 day

C=C(Cl)C(=O)NCCCCCCCCCCCC(=O)Oc1c(OC)ccc2c1[C@@]13CCN(C)[C@@H](C2)[C@H]1C=C(OC)C(=O)C3
Activity (HCT-116 [1]): Active
Activity (HCT-116 [2]): Dose-Dependent Effect
Activity (HCT-116 [3]): inactive
Activity (HCT-116 [4]): Active
Activity [5]: Non-Toxic
